The source of these data is ChEMBL document CHEMBL1649515, “Heteroresistance to fluconazole in Cryptococcus neoformans is intrinsic and associated with virulence” (2009).

One experiment concerns Streptomyces platensis. Briefly: Antimicrobial activity against Streptomyces platensis at 8 to 32 ug/ml. The experiment is classed as functional.
In experiment [1] the test system is Cryptococcus neoformans. The experiment in a line: Antimicrobial activity against Cryptococcus neoformans serotype A. The experiment is classed as functional.
Experiment [2] has as its system Cryptococcus neoformans. The experiment in a line: Antimicrobial activity against Cryptococcus neoformans serotype D. Type of experiment: functional.
The next experiment relates to Burkholderia sp. Briefly: Antimicrobial activity against Burkholderia sp. at 8 to 32 ug/ml. Type of experiment: functional.
The next experiment has as its system Aspergillus fumigatus. Briefly: Antimicrobial activity against Aspergillus fumigatus at 8 to 32 ug/ml. The experiment is classed as functional, organism-based.

Active and inactive are the calls of the source. The calls are words filed in the database; no cut-off is given here.

Usually MIC stands for the least concentration at which growth counts as inhibited. On to `OC(Cn1cncn1)(Cn1cncn1)c1ccc(F)cc1F` [FLUCONAZOLE], for which the result in the experiment on Streptomyces platensis, in the experiment with Burkholderia sp. and in the experiment on Aspergillus fumigatus was inactive. In addition, the minimum inhibitory concentration (MIC) against Cryptococcus neoformans [1] and against Cryptococcus neoformans [2] was at least 64 µg/mL each time.
